Test results as given in patent publication US20210355121A1, “FUSED TRICYCLIC KRAS INHIBITORS” (Incyte Corporation, priority 2020, published 2021).
pIC50: −log10 of the molar value. Where two headings read alike, the source gives them in different places.

How the values were obtained:
KRAS G12C = KRAS G12C (Homo sapiens, UniProt P01116, G12C); assay: KRAS G12C GDP-GTP exchange assay (bodipy-GDP for GppNHp, with SOS1); assay type: biochemical; settings: 2.5 nM bodipy-loaded KRAS G12C, 2 hours pre-incubation with inhibitor, 2 hours after GppNHp-SOS1; read-out: G12C_exchange (KRAS_G12C exchange assay IC50)
Procedure: The inhibitor potency of the exemplified compounds was determined in a fluorescence based guanine nucleotide exchange assay, which measures the exchange of bodipy-GDP (fluorescently labeled GDP) for GppNHp (Non-hydrolyzable GTP analog) to generate the active state of KRAS in the presence of SOS1 (guanine nucleotide exchange factor). Inhibitors were serially diluted in DMSO and a volume of 0.1 μL was transferred to the wells of a black low volume 384-well plate. 5 μL/well volume of bodipy-loaded KRAS G12C diluted to 5 nM in assay buffer (25 mM Hepes pH 7.5, 50 mM NaCl, 10 mM MgCl2 and 0.01% Brij-35) was added to the plate and pre-incubated with inhibitor for 2 hours at ambient temperature. Appropriate controls (enzyme with no inhibitor or with a G12C inhibitor (AMG-510)) were included on the plate. The exchange was initiated by the addition of a 5 μL/well volume containing 1 mM GppNHp and 300 nM SOS1 in assay buffer. The 10 μL/well reaction concentration of the bodipy-loaded KRAS G12C, GppNHp, and SOS1 were 2.5 nM, 500 uM, and 150 nM, respectively. The reaction plates were incubated at ambient temperature for 2 hours, a time estimated for complete GDP-GTP exchange in the absence of inhibitor. For the KRAS G12D and G12V mutants, similar guanine nucleotide exchange assays were used with 2.5 nM as final concentration for the bodipy loaded KRAS proteins and with 4 hours and 3 hours incubation after adding GppNHp-SOS1 mixture for G12D and G12V respectively. A cyclic peptide described to selectively bind G12D mutant (Sakamoto et al., BBRC 484.3 (2017), 605-611) or internal compounds with confirmed binding were used as positive controls in the assay plates. Fluorescence intensities were measured on a PheraStar plate reader instrument (BMG Labtech) with excitation at 485 nm and emission at 520 nm.
Either GraphPad prism or XLfit was used to analyze the data. The IC50 values were derived by fitting the data to a four parameter logistic equation producing a sigmoidal dose-response curve with a variable Hill coefficient. Prism equation: Y=Bottom+(Top−Bottom)/(1+10^((Log IC50−X)*Hill slope)); XLfit equation: Y=(A+((B−A)/(1+((X/C)^D)))) where X is the logarithm of inhibitor concentration and Y is the response.

[1] = tested on: MIA PaCa-2 (KRAS G12C) cells; assay: KRAS_G12C cellular pERK HTRF assay; assay type: cell-based, human; settings: phospho-ERK1/2 HTRF, 4 hours incubation, read-out: G12C_pERK (KRAS_G12C pERK assay IC50)
Procedure: MIA PaCa-2 (KRAS G12C; ATCC® CRL-1420), A427 (KRAS G12D; ATCC® HTB53), HPAF-II (KRAS G12D; ATCC® CRL-1997) and NCI-H838 (KRAS WT; ATCC® CRL-5844) cells are purchased from ATCC and maintained in RPMI 1640 media supplemented with 10% FBS (Gibco/Life Technologies). The cells are plated at 5000 cells per well (8 uL) into Greiner 384-well low volume, flat-bottom, tissue culture treated white plates and incubated overnight at 37° C., 5% CO2. The next morning, test compound stock solutions are diluted in media at 3× the final concentration, and 4 uL are added to the cells. The plate is mixed by gentle rotation for 30 seconds (250 rpm) at room temperature. The cells are incubated with the KRAS G12C and G12D compounds for 4 hours or 2 hours respectively at 37° C., 5% CO2.
4 uL of 4× lysis buffer with blocking reagent (1:25) (Cisbio) are added to each well and plates are rotated gently (300 rpm) for 30 minutes at room temperature. 4 uL per well of Cisbio anti Phospho-ERK 1/2 d2 is mixed with anti Phospho-ERK 1/2 Cryptate (1:1) are added to each well, mixed by rotation and incubated overnight in the dark at room temperature. Plates are read on the Pherastar plate reader at 665 nm and 620 nm wavelengths. IC50 determination is performed by fitting the curve of inhibitor percent inhibition versus the log of the inhibitor concentration using the GraphPad Prism 7 software.

Sequence of KRAS G12C (P01116 1-188 isoform P01116-2 G12C): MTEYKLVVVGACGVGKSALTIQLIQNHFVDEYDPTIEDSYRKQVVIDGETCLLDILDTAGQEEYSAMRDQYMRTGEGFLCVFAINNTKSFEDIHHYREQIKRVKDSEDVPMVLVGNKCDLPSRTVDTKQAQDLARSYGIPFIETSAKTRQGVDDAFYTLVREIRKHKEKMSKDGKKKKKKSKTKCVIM

pIC50 (KRAS G12C)	pIC50 ([1]; Homo sapiens, MIA PaCa-2)	pIC50 [1]	SMILES
≥ 7.00	≥ 7.00		Cc1c(Cl)cc2[nH]ncc2c1-c1c(Cl)cc2c(nc(N3CC(C)(N(C)C)C3)c3cnn([C@H]4CCN(C(=O)/C=C/CF)[C@H](CC#N)C4)c32)c1F (single isomer, unassigned) [Example 13a]
≥ 7.00	≥ 7.00		Cc1c(Cl)cc2[nH]ncc2c1-c1c(Cl)cc2c(nc(N3CC(C)(N(C)C)C3)c3cnn([C@H]4CCN(C(=O)/C=C/C(F)F)[C@H](CC#N)C4)c32)c1F (single isomer, unassigned) [Example 14a]
≥ 7.00	≥ 7.00		C=C(F)C(=O)N1CC[C@H](n2ncc3c(N4CC(C)(N(C)C)C4)nc4c(F)c(-c5c(C)c(Cl)cc6[nH]ncc56)c(Cl)cc4c32)C[C@H]1CC#N (single isomer, unassigned) [Example 15a]
≥ 7.00	≥ 7.00		C=CC(=O)N1CC[C@H](n2ncc3c(N4CC(C)(N(C)C)C4)nc4c(F)c(-c5c(C)c(Cl)cc6[nH]ncc56)c(Cl)cc4c32)C[C@H]1CC#N (single isomer, unassigned) [Example 16a]
≥ 7.00	≥ 7.00		Cc1c(Cl)cc2[nH]ncc2c1-c1c(Cl)cc2c(nc(OC[C@@H]3CCCN3C)c3cnn([C@H]4CCN(C(=O)/C=C/CN(C)C)[C@H](CC#N)C4)c32)c1F (single isomer, unassigned) [Example 17a]
≥ 7.00	≥ 7.00		CC#CC(=O)N1CC[C@H](n2ncc3c(OC[C@@H]4CCCN4C)nc4c(F)c(-c5c(C)c(Cl)cc6[nH]ncc56)c(Cl)cc4c32)C[C@H]1CC#N (single isomer, unassigned) [Example 18a]
≥ 7.00	≥ 7.00		COC/C=C/C(=O)N1CC[C@H](n2ncc3c(OC[C@@H]4CCCN4C)nc4c(F)c(-c5c(C)c(Cl)cc6[nH]ncc56)c(Cl)cc4c32)C[C@H]1CC#N (single isomer, unassigned) [Example 19a]
≥ 7.00	≥ 7.00		C=CC(=O)N1CC[C@H](n2ncc3c(OC[C@@H]4CCCN4C)nc4c(F)c(-c5c(C)c(Cl)cc6[nH]ncc56)c(Cl)cc4c32)C[C@H]1CC#N (single isomer, unassigned) [Example 20a]
≥ 7.00	≥ 7.00		C=CC(=O)N1CC[C@H](n2ncc3c(N4CC(N(C)C)C4)nc4c(F)c(-c5ccc(F)c6cccnc56)c(Cl)cc4c32)C[C@H]1CC#N (single isomer, unassigned) [Example 21a]
≥ 7.00		≥ 7.00	C=CC(=O)N1CC[C@H](n2ncc3c(N4CC(N(C)C)C4)nc4c(F)c(-c5ccc(F)c6cccnc56)c(Cl)cc4c32)C[C@H]1CC#N (single isomer, unassigned) [Example 21b]
≥ 7.00	≥ 7.00		C=CC(=O)N1CC[C@H](n2ncc3c(N4CC(N(C)C)C4)nc4c(F)c(-c5cccc(Cl)c5Cl)c(Cl)cc4c32)C[C@H]1CC#N (single isomer, unassigned) [Example 25a]
≥ 7.00		≥ 7.00	C=CC(=O)N1CC[C@H](n2ncc3c(N4CC(N(C)C)C4)nc4c(F)c(-c5cccc(Cl)c5Cl)c(Cl)cc4c32)C[C@H]1CC#N (single isomer, unassigned) [Example 25b]
≥ 7.00	≥ 7.00		CC#CC(=O)N1CC[C@H](n2ncc3c(N4CC(N(C)C)C4)nc4c(F)c(-c5cccc(Cl)c5Cl)c(Cl)cc4c32)C[C@H]1CC#N (single isomer, unassigned) [Example 26a]
≥ 7.00		≥ 7.00	CC#CC(=O)N1CC[C@H](n2ncc3c(N4CC(N(C)C)C4)nc4c(F)c(-c5cccc(Cl)c5Cl)c(Cl)cc4c32)C[C@H]1CC#N (single isomer, unassigned) [Example 26b]
≥ 7.00	≥ 7.00		COC/C=C/C(=O)N1CC[C@H](n2ccc3c(OC[C@@H]4CCCN4C)nc4c(F)c(-c5c(C)c(C)cc6[nH]ncc56)c(Cl)cc4c32)C[C@H]1CC#N (single isomer, unassigned) [Example 47a]
≥ 7.00	≥ 7.00		Cc1cc2c(nc(OC[C@@H]3CCCN3C)c3cnn([C@H]4CCN(C(=O)/C=C/CF)[C@H](CC#N)C4)c32)c(F)c1-c1cccc2cccc(C#N)c12 (single isomer, unassigned) [Example 51a]
≥ 7.00	≥ 7.00		C=C(F)C(=O)N1CC[C@H](n2ncc3c(OC[C@@H]4CCCN4C)nc4c(F)c(-c5cccc6cccc(C#N)c56)c(C)cc4c32)C[C@H]1CC#N (single isomer, unassigned) [Example 52a]
≥ 7.00	≥ 7.00		CC#CC(=O)N1CC[C@H](n2ncc3c(OC[C@@H]4CCCN4C)nc4c(F)c(-c5cccc6cccc(C#N)c56)c(C)cc4c32)C[C@H]1CC#N (single isomer, unassigned) [Example 53a]
≥ 7.00	≥ 7.00		COC/C=C/C(=O)N1CC[C@H](n2ncc3c(OC[C@@H]4CCCN4C)nc4c(F)c(-c5cccc6cccc(C#N)c56)c(C)cc4c32)C[C@H]1CC#N (single isomer, unassigned) [Example 54a]
≥ 7.00	≥ 7.00		Cc1cc2c(nc(O[C@@H](C)[C@@H]3CCCN3C)c3cnn([C@H]4CCN(C(=O)/C=C/CF)[C@H](CC#N)C4)c32)c(F)c1-c1cccc2cccc(C#N)c12 (single isomer, unassigned) [Example 55b]
≥ 7.00	≥ 7.00		C=C(F)C(=O)N1CC[C@H](n2ncc3c(O[C@@H](C)[C@@H]4CCCN4C)nc4c(F)c(-c5cccc6cccc(C#N)c56)c(C)cc4c32)C[C@H]1CC#N (single isomer, unassigned) [Example 56b]
≥ 7.00	≥ 7.00		COC/C=C/C(=O)N1CC[C@H](n2ncc3c(O[C@@H](C)[C@@H]4CCCN4C)nc4c(F)c(-c5cccc6cccc(C#N)c56)c(C)cc4c32)C[C@H]1CC#N (single isomer, unassigned) [Example 57b]
≥ 7.00	≥ 7.00		Cc1cc2c(nc(N3CC(C)(N(C)C)C3)c3cnn([C@H]4CCN(C(=O)/C=C/CF)[C@H](CC#N)C4)c32)c(F)c1-c1cccc2cccc(C#N)c12 (single isomer, unassigned) [Example 58a]
≥ 7.00	≥ 7.00		C=C(F)C(=O)N1CC[C@H](n2ncc3c(N4CC(C)(N(C)C)C4)nc4c(F)c(-c5cccc6cccc(C#N)c56)c(C)cc4c32)C[C@H]1CC#N (single isomer, unassigned) [Example 59a]
≥ 7.00	≥ 7.00		CC#CC(=O)N1CC[C@H](n2ncc3c(N4CC(C)(N(C)C)C4)nc4c(F)c(-c5cccc6cccc(C#N)c56)c(C)cc4c32)C[C@H]1CC#N (single isomer, unassigned) [Example 60a]
≥ 7.00	≥ 7.00		COC/C=C/C(=O)N1CC[C@H](n2ncc3c(N4CC(C)(N(C)C)C4)nc4c(F)c(-c5cccc6cccc(C#N)c56)c(C)cc4c32)C[C@H]1CC#N (single isomer, unassigned) [Example 61a]
≥ 7.00	≥ 7.00		Cc1cc2c(nc(N3CC(C)(N(C)C)C3)c3cnn([C@H]4CCN(C(=O)/C=C/CN(C)C)[C@H](CC#N)C4)c32)c(F)c1-c1cccc2cccc(C#N)c12 (single isomer, unassigned) [Example 62a]
